Test results taken from patent publication US12121521B2, “Uses of salt-inducible kinase (SIK) inhibitors for treating osteoporosis” (The General Hospital Corporation, priority 2016, dated 2024).

What was measured:
Assay in all cases: ScanEDGE kinase panel (DiscoverX)
Format in all cases: binding
MEK2 = biological target: T1, MEK2 (Homo sapiens, UniProt P36507); settings: read-out: % of control activity at 71 nM
T1 construct: T7 phage fusion (most kinases) or DNA tag for qPCR (kinases made in HEK-293); purchased DiscoverX; host or cells: E. coli BL21-derived host (T7 phage) or HEK-293
Method: (§1) ScanEDGE kinase assays paneling specificity across a panel of 96 representative kinases were performed by DiscoverX (Fremont, CA). For most assays, kinase-tagged T7 phage strains were grown in parallel in 24-well blocks in an E. coli host derived from the BL21 strain. Bacteria were grown to log phase and infected with T7 phage from frozen stock (MOI=0.4) and incubated with shaking at 32° C. until lysis (90-150 minutes). The lysates were centrifuged (6000×g) and filtered (0.2 μm) to remove cell debris. The remaining kinases were produced in HEK-293 cells and subsequently tagged with DNA for qPCR detection. […] The liganded beads were blocked with excess biotin and washing with blocking buffer (SeaBlock (Pierce), 1% BSA, 0.05% Tween 20, 1 mM DTT) to remove unbound ligand and to reduce non-specific phage binding. […] Test compounds were prepared as 40× stocks in 100% DMSO and directly diluted into the assay. All reactions were performed in polypropylene 384 well plates in a final volume of 40 μl. […] The kinase concentration in the eluates was measured by qPCR.

JNK2 = biological target: T2, JNK2 (Homo sapiens, UniProt P45984); settings: read-out: % of control activity at 71 nM
T2 construct: T7 phage fusion (most kinases) or DNA tag for qPCR (HEK-293-made kinases); purchased DiscoverX; host or cells: E. coli BL21-derived host (T7 phage) or HEK-293
Method: as §1

CDK11 = biological target: T3, CDK11 (Homo sapiens, UniProt Q9BWU1); settings: read-out: % of control activity at 71 nM
T3 construct: T7 phage fusion (most kinases) or DNA tag for qPCR (HEK-293-made kinases); purchased DiscoverX (Fremont, CA); host or cells: E. coli BL21-derived host (T7 phage) or HEK-293
Method: as §1

AMPK-alpha1 = biological target: T4, AMPK-alpha1 (Homo sapiens, UniProt Q13131); settings: read-out: % of control activity at 71 nM
T4 construct: T7 phage fusion (most kinases) or DNA tag for qPCR (HEK-293-made kinases); purchased DiscoverX (Fremont, CA); host or cells: E. coli BL21-derived host (T7 phage) or HEK-293
Method: as §1

AKT1 = biological target: T5, AKT1 (Homo sapiens, UniProt P31749); settings: read-out: % of control activity at 71 nM
T5 construct: T7 phage fusion (most kinases) or DNA tag for qPCR (HEK-293-made kinases); purchased DiscoverX (Fremont, CA); host or cells: E. coli BL21-derived host (T7 phage) or HEK-293
Method: as §1

SIK2 = biological target: T6, SIK2 (Homo sapiens, UniProt Q9H0K1); settings: read-out: % of control activity at 71 nM
T6 construct: T7 phage fusion (most kinases) or DNA tag after HEK-293 expression; purchased DiscoverX (Fremont, CA), ScanEDGE; host or cells: T7 phage in E. coli BL21-derived host, or HEK-293
Method: as §1

KIT = biological target: T7, KIT (Homo sapiens, UniProt P10721); settings: read-out: % of control activity at 71 nM
T7 construct: T7 phage fusion (most kinases) or DNA tag for qPCR (HEK-293-made kinases); purchased DiscoverX; host or cells: E. coli BL21-derived host (T7 phage) or HEK-293
Method: as §1

QSK (SIK3) = biological target: T8, QSK (SIK3) (Homo sapiens, UniProt Q9Y2K2); settings: QSK refers to SIK3, read-out: % of control activity at 71 nM
T8 construct: T7 phage fusion (most kinases) or DNA tag after HEK-293 expression; purchased DiscoverX (Fremont, CA), ScanEDGE; host or cells: T7 phage in E. coli BL21-derived host, or HEK-293
Method: as §1

PIK3CG = biological target: T9, PIK3CG (Homo sapiens, UniProt P48736); settings: read-out: % of control activity at 71 nM
T9 construct: T7 phage fusion (most kinases) or DNA tag for qPCR (kinases made in HEK-293); purchased DiscoverX; host or cells: E. coli BL21-derived host (T7 phage) or HEK-293
Method: as §1

MKNK1 = biological target: T10, MKNK1 (Homo sapiens, UniProt Q9BUB5); settings: read-out: % of control activity at 71 nM
T10 construct: T7 phage fusion (most kinases) or DNA tag for qPCR (kinases made in HEK-293); purchased DiscoverX; host or cells: E. coli BL21-derived host (T7 phage) or HEK-293
Method: as §1

CDK7 = biological target: T11, CDK7 (Homo sapiens, UniProt P50613); settings: read-out: % of control activity at 71 nM
T11 construct: T7 phage fusion (most kinases) or DNA tag for qPCR (HEK-293-made kinases); purchased DiscoverX (Fremont, CA); host or cells: E. coli BL21-derived host (T7 phage) or HEK-293
T11 sequence (P50613 whole entry, the tested form may be a part): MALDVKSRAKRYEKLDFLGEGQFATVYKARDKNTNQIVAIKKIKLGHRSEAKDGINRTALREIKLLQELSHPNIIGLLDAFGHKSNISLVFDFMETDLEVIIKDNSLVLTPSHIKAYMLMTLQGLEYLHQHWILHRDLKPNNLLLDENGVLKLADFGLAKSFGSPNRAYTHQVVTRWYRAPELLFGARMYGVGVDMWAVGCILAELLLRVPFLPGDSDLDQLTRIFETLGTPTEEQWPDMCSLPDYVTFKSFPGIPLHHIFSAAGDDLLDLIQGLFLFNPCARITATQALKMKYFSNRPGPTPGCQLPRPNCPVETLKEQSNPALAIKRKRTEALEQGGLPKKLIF
Method: as §1

PLK1 = biological target: T12, PLK1 (Homo sapiens, UniProt P53350); settings: read-out: % of control activity at 71 nM
T12 construct: T7 phage fusion (most kinases) or DNA tag for qPCR (kinases made in HEK-293); purchased DiscoverX; host or cells: E. coli BL21-derived host (T7 phage) or HEK-293
Method: as §1

MLK1 = biological target: T13, MLK1 (Homo sapiens, UniProt P80192); settings: read-out: % of control activity at 71 nM
T13 construct: T7 phage fusion (most kinases) or DNA tag for qPCR (kinases made in HEK-293); purchased DiscoverX; host or cells: E. coli BL21-derived host (T7 phage) or HEK-293
Method: as §1

MAP3K4 = biological target: T14, MAP3K4 (Homo sapiens, UniProt Q9Y6R4); settings: read-out: % of control activity at 71 nM
T14 construct: T7 phage fusion (most kinases) or DNA tag for qPCR (HEK-293-made kinases); purchased DiscoverX; host or cells: E. coli BL21-derived host (T7 phage) or HEK-293
Method: as §1

LKB1 = biological target: T15, LKB1 (Homo sapiens, UniProt Q15831); settings: read-out: % of control activity at 71 nM
T15 construct: T7 phage fusion (most kinases) or DNA tag for qPCR (HEK-293-made kinases); purchased DiscoverX; host or cells: E. coli BL21-derived host (T7 phage) or HEK-293
Method: as §1

ULK2 = biological target: T16, ULK2 (Homo sapiens, UniProt Q8IYT8); settings: read-out: % of control activity at 71 nM
T16 construct: T7 phage fusion (most kinases) or DNA tag after HEK-293 expression; purchased DiscoverX (Fremont, CA), ScanEDGE; host or cells: T7 phage in E. coli BL21-derived host, or HEK-293
Method: as §1

PDGFRB = biological target: T17, PDGFRB (Homo sapiens, UniProt P09619); settings: read-out: % of control activity at 71 nM
T17 construct: T7 phage fusion (most kinases) or DNA tag for qPCR (kinases made in HEK-293); purchased DiscoverX; host or cells: E. coli BL21-derived host (T7 phage) or HEK-293
Method: as §1

PIK3C2B = biological target: T18, PIK3C2B (Homo sapiens, UniProt O00750); settings: read-out: % of control activity at 71 nM
T18 construct: T7 phage fusion (most kinases) or DNA tag for qPCR (kinases made in HEK-293); purchased DiscoverX; host or cells: E. coli BL21-derived host (T7 phage) or HEK-293
T18 sequence (O00750 whole entry, the tested form may be a part): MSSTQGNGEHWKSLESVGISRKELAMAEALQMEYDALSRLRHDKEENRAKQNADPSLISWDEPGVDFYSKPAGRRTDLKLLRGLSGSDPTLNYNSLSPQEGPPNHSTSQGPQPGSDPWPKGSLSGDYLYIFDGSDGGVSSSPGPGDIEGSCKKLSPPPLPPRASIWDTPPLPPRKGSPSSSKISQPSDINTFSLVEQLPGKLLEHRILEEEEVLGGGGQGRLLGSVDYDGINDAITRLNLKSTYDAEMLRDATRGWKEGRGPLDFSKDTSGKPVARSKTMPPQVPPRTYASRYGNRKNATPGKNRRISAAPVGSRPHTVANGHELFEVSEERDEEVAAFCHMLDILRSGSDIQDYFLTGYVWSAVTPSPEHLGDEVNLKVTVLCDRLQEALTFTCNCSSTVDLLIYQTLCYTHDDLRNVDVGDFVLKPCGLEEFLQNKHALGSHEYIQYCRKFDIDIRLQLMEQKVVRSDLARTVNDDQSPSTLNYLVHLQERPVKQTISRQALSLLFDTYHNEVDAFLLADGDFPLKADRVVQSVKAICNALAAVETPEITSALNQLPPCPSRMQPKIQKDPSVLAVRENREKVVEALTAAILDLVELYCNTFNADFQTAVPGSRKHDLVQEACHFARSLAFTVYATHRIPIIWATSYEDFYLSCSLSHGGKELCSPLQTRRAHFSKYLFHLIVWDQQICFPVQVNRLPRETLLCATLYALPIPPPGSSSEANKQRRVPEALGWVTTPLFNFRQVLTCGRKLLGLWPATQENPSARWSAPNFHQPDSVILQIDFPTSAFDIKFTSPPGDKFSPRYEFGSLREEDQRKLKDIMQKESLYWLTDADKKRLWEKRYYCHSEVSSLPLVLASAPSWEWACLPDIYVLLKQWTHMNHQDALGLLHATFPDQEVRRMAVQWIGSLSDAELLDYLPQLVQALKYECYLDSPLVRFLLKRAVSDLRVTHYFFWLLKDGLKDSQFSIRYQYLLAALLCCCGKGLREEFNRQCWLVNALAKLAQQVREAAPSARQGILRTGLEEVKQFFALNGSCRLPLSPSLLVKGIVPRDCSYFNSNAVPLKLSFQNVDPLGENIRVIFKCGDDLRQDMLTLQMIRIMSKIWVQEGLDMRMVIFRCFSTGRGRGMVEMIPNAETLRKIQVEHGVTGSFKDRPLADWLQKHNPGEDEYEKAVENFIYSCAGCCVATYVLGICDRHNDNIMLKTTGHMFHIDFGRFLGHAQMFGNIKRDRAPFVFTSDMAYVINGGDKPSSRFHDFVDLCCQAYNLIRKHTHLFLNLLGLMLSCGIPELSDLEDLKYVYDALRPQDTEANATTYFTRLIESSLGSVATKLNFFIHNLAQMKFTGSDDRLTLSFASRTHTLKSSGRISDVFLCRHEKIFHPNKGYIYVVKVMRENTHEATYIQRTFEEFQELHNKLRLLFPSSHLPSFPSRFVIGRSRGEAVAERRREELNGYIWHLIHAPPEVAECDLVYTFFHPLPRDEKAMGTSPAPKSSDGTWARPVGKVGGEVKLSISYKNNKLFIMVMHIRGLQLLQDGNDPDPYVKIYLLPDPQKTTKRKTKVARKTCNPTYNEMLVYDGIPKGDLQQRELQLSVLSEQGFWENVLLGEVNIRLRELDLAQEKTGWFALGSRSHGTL
Method: as §1

RIOK2 = biological target: T19, RIOK2 (Homo sapiens, UniProt Q9BVS4); settings: read-out: % of control activity at 71 nM
T19 construct: T7 phage fusion (most kinases) or DNA tag after HEK-293 expression; purchased DiscoverX (Fremont, CA), ScanEDGE; host or cells: T7 phage in E. coli BL21-derived host, or HEK-293
T19 sequence (Q9BVS4 whole entry, the tested form may be a part): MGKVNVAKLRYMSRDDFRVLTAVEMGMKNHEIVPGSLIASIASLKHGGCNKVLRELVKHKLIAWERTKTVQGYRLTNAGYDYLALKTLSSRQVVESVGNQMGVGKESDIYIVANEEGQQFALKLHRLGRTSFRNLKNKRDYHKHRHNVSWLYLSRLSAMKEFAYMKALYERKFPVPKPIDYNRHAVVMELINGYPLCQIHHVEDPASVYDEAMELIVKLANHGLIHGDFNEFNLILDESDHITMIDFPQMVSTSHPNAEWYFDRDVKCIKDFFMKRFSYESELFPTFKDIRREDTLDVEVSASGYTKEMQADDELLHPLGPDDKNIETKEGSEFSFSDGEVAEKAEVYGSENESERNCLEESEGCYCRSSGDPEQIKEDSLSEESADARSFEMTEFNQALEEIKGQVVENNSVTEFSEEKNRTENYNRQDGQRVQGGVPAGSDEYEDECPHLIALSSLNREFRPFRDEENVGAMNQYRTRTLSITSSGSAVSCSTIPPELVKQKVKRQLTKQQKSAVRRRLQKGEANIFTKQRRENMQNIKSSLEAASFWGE
Method: as §1

p38-alpha = biological target: T20, p38-alpha (Homo sapiens, UniProt Q16539); settings: read-out: % of control activity at 71 nM
T20 construct: T7 phage fusion (most kinases) or DNA tag for qPCR (kinases made in HEK-293); purchased DiscoverX; host or cells: E. coli BL21-derived host (T7 phage) or HEK-293
Method: as §1

CHEK1 = biological target: T21, CHEK1 (Homo sapiens, UniProt O14757); settings: read-out: % of control activity at 71 nM
T21 construct: T7 phage fusion (most kinases) or DNA tag for qPCR (HEK-293-made kinases); purchased DiscoverX (Fremont, CA); host or cells: E. coli BL21-derived host (T7 phage) or HEK-293
Method: as §1

MELK = biological target: T22, MELK (Homo sapiens, UniProt Q14680); settings: read-out: % of control activity at 71 nM
T22 construct: T7 phage fusion (most kinases) or DNA tag for qPCR (kinases made in HEK-293); purchased DiscoverX; host or cells: E. coli BL21-derived host (T7 phage) or HEK-293
T22 sequence (Q14680 whole entry, the tested form may be a part): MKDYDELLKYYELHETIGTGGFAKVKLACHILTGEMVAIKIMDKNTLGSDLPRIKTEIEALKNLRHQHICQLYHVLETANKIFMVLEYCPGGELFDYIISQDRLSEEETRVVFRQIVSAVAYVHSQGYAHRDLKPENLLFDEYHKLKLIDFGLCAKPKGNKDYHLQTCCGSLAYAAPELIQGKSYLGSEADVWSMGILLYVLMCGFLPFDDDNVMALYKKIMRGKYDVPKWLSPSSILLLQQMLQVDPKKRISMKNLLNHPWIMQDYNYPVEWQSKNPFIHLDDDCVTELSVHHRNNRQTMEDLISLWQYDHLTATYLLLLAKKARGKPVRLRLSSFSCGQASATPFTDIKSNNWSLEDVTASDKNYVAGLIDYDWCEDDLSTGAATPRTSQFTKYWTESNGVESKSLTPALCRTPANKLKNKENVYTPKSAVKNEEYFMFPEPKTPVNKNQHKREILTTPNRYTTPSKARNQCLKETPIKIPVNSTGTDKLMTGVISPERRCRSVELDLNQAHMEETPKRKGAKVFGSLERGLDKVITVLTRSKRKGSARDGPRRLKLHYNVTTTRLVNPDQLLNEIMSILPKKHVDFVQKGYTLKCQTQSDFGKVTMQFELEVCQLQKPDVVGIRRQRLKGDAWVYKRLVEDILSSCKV
Method: as §1

ROCK2 = biological target: T23, ROCK2 (Homo sapiens, UniProt O75116); settings: read-out: % of control activity at 71 nM
T23 construct: T7 phage fusion (most kinases) or DNA tag after HEK-293 expression; purchased DiscoverX (Fremont, CA), ScanEDGE; host or cells: T7 phage in E. coli BL21-derived host, or HEK-293
T23 sequence (O75116 whole entry, the tested form may be a part): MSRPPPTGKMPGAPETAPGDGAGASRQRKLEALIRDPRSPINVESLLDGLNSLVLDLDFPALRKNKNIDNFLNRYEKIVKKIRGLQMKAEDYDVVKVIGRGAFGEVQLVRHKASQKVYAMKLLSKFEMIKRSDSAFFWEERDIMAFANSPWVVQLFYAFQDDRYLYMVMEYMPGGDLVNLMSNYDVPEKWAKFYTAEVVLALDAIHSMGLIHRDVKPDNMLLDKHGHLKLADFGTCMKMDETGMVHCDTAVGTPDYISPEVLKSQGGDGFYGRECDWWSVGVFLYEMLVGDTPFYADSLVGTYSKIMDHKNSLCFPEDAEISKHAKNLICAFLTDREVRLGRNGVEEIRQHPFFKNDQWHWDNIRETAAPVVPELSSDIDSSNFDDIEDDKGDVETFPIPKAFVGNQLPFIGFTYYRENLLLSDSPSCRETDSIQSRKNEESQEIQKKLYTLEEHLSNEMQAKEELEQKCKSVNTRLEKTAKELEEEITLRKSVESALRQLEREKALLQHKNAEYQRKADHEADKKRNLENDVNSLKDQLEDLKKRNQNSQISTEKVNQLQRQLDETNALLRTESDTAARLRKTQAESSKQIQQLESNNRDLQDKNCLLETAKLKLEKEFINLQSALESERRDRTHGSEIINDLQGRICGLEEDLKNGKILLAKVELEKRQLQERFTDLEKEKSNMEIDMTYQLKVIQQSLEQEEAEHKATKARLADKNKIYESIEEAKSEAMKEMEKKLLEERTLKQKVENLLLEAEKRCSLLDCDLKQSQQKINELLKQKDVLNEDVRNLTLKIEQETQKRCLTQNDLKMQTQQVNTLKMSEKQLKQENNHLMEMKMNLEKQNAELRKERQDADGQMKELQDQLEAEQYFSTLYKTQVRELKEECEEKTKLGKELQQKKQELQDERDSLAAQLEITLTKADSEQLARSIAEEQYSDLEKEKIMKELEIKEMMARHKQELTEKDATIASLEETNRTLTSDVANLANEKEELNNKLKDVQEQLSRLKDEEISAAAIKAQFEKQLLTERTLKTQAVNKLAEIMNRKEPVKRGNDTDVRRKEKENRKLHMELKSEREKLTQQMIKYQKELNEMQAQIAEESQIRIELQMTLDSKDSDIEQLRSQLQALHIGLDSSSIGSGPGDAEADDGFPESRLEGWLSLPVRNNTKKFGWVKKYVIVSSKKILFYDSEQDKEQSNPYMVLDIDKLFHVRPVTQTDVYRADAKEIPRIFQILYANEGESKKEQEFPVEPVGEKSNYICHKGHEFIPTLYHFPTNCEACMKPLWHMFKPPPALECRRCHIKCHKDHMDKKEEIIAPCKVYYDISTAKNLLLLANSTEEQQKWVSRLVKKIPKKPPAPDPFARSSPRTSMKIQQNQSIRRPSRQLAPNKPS
Method: as §1

CDK9 = biological target: T24, CDK9 (Homo sapiens, UniProt P50750); settings: read-out: % of control activity at 71 nM
T24 construct: T7 phage fusion (most kinases) or DNA tag for qPCR (HEK-293-made kinases); purchased DiscoverX (Fremont, CA); host or cells: E. coli BL21-derived host (T7 phage) or HEK-293
Method: as §1

CSNK1G2 = biological target: T25, CSNK1G2 (Homo sapiens, UniProt P78368); settings: read-out: % of control activity at 71 nM
T25 construct: T7 phage fusion (most kinases) or DNA tag for qPCR (HEK-293-made kinases); purchased DiscoverX (Fremont, CA); host or cells: E. coli BL21-derived host (T7 phage) or HEK-293
Method: as §1

IGF1R = biological target: T26, IGF1R (Homo sapiens, UniProt P08069); settings: read-out: % of control activity at 71 nM
T26 construct: T7 phage fusion (most kinases) or DNA tag for qPCR (HEK-293-made kinases); purchased DiscoverX; host or cells: E. coli BL21-derived host (T7 phage) or HEK-293
Method: as §1

HCK = biological target: T27, HCK (Homo sapiens, UniProt P08631); settings: read-out: % of control activity at 71 nM
T27 construct: T7 phage fusion (most kinases) or DNA tag for qPCR (HEK-293-made kinases); purchased DiscoverX; host or cells: E. coli BL21-derived host (T7 phage) or HEK-293
T27 sequence (P08631 whole entry, the tested form may be a part): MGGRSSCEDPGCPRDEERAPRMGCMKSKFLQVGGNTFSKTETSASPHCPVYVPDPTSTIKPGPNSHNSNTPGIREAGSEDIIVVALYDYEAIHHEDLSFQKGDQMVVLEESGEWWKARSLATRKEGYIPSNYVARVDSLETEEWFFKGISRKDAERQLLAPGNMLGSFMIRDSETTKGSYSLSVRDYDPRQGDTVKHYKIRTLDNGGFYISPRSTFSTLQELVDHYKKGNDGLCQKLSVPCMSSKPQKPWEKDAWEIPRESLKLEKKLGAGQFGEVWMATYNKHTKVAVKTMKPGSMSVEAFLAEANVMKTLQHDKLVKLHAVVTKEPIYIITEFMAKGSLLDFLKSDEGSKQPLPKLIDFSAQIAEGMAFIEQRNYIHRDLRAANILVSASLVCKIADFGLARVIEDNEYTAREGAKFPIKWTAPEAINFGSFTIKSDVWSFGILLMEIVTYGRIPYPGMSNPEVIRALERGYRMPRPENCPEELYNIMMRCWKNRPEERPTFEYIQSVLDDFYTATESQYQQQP
Method: as §1

DCAMKL1 = biological target: T28, DCAMKL1 (Homo sapiens, UniProt O15075); settings: read-out: % of control activity at 71 nM
T28 construct: T7 phage fusion (most kinases) or DNA tag for qPCR (HEK-293-made kinases); purchased DiscoverX (Fremont, CA); host or cells: E. coli BL21-derived host (T7 phage) or HEK-293
Method: as §1

ARK5 = biological target: T29, ARK5 (Homo sapiens, UniProt O60285); settings: read-out: % of control activity at 71 nM
T29 construct: T7 phage fusion (most kinases) or DNA tag for qPCR (HEK-293-made kinases); purchased DiscoverX (Fremont, CA); host or cells: E. coli BL21-derived host (T7 phage) or HEK-293
Method: as §1

ALK = biological target: T30, ALK (Homo sapiens, UniProt Q9UM73); settings: read-out: % of control activity at 71 nM
T30 construct: T7 phage fusion (most kinases) or DNA tag for qPCR (HEK-293-made kinases); purchased DiscoverX (Fremont, CA); host or cells: E. coli BL21-derived host (T7 phage) or HEK-293
Method: as §1

RET = biological target: T31, RET (Homo sapiens, UniProt P07949); settings: read-out: % of control activity at 71 nM
T31 construct: T7 phage fusion (most kinases) or DNA tag after HEK-293 expression; purchased DiscoverX (Fremont, CA), ScanEDGE; host or cells: T7 phage in E. coli BL21-derived host, or HEK-293
Method: as §1

CSF1R = biological target: T32, CSF1R (Homo sapiens, UniProt P07333); settings: read-out: % of control activity at 71 nM
T32 construct: T7 phage fusion (most kinases) or DNA tag for qPCR (HEK-293-made kinases); purchased DiscoverX (Fremont, CA); host or cells: E. coli BL21-derived host (T7 phage) or HEK-293
Method: as §1

remaining binding at 0.071 µM (MEK2): 12% | remaining binding at 0.071 µM (JNK2): 89% | remaining binding at 0.071 µM (CDK11): 88% | remaining binding at 0.071 µM (AMPK-alpha1): 94% | remaining binding at 0.071 µM (AKT1): 92% | remaining binding at 0.071 µM (SIK2): 10% | remaining binding at 0.071 µM (KIT): 1.8% | remaining binding at 0.071 µM (QSK (SIK3)): 5.3% | remaining binding at 0.071 µM (PIK3CG): 80% | remaining binding at 0.071 µM (MKNK1): 76% | remaining binding at 0.071 µM (CDK7): 85% | remaining binding at 0.071 µM (PLK1): 100% | remaining binding at 0.071 µM (MLK1): 12% | remaining binding at 0.071 µM (MAP3K4): 60% | remaining binding at 0.071 µM (LKB1): 85% | remaining binding at 0.071 µM (ULK2): 31% | remaining binding at 0.071 µM (PDGFRB): 0.35% | remaining binding at 0.071 µM (PIK3C2B): 100% | remaining binding at 0.071 µM (RIOK2): 77% | remaining binding at 0.071 µM (p38-alpha): 0.95% | remaining binding at 0.071 µM (CHEK1): 42% | remaining binding at 0.071 µM (MELK): 36% | remaining binding at 0.071 µM (ROCK2): 70% | remaining binding at 0.071 µM (CDK9): 88% | remaining binding at 0.071 µM (CSNK1G2): 100% | remaining binding at 0.071 µM (IGF1R): 100% | remaining binding at 0.071 µM (HCK): 1.2% | remaining binding at 0.071 µM (DCAMKL1): 89% | remaining binding at 0.071 µM (ARK5): 77% | remaining binding at 0.071 µM (ALK): 23% | remaining binding at 0.071 µM (RET): 3.6% | remaining binding at 0.071 µM (CSF1R): 0.85%
SMILES: COc1ccc(N2C(=O)N(c3c(C)cccc3C)Cc3cnc(Nc4ccc(C5CCN(C)CC5)c(OC)c4)nc32)c(OC)c1 [YKL-05-093]
